These molecules were tested against T1, wild-type human melanocortin 4 receptor (WT-hMC4R) (Homo sapiens, UniProt P32245) (assay: Cyclic AMP assay (HTRF), antagonist competition against NDP-α-MSH). Details: HEK293T cells expressing double-tagged WT-hMC4R; cAMP accumulation; 1 hour compound then 4 nM NDP-α-MSH 30 min.
T1 construct: expressed in transfected cells; cDNA from UMR cDNA resource center
Type: cell-based
Experimental: Intracellular cyclic 3′-5′ adenosine monophosphate (cAMP) accumulation was measured using a competitive immunoassay based on HTRF (Homogeneous Time-Resolved Fluorescence) technology (cAMP dynamic-2, Cis-Bio).
HEK293T stable cell line expressing double-tagged WT-hMC4R construct were collected and washed in cAMP buffer (1XD-PBS pH 7.4, 0.1% glucose). 40,000 cells/well were then dispensed in 96-well plates in cAMP buffer [1XD-PBS, 1% BSA, 0.1% Glucose, 0.75 mM 3-isobutyl-1methyl-xanthine (IBMX, Sigma)] and incubated either for antagonist competition assay: 1 hour at 37° C. with various concentrations of compound [0.01 nM-10 μM] followed by 30 min incubation at 37° C. with 4 nM of NDP-α-MSH (Sigma) or for agonist assay: 1 hour at 37° C. with various concentrations of compound [0.01 nM-10 μM]. 10,000 cells were transferred in 384-well plates, lysed and incubated with cAMP labeled with the dye d2 and anti-cAMP M-Antibody labeled with Cryptate following the manufacturer's protocol.
Reading of HTRF signal was performed on Artemis TR-FRET plate reader (Cosmo Bio).
All curve fitting was conducted using non-linear regression analyses from PRISM (version 4.0c, GraphPad Inc.) and the determination of Rmax and EC50 or IC50 parameters were obtained from sigmoidal dose-response phase (variable slope) equation.
A cDNA encoding a wild-type human MC4R with a 3 tandem copies of Hemaglutinine (HA) epitote sequence from UMR cDNA resource center was modified using known techniques in the art (e.g., PCR, cloning) to fused in frame at the C-terminal a venus-Yellow Fluorescent Protein (YFP) cDNA.
The resultant cDNA was then subcloned in eukaryotic expression vector, e.g. pcDNA 3.1(+) (Invitrogen).
The double tagged WT-hMC4R was transfected in HEK293T cells with lipofectamine (Invitrogen) following the manufacturer's instructions and permanently transfected clonal cell lines were selected by resistance to the neomycin analog G418.
HEK293T stable cell line expressing wild-type human melanocortin 4 receptor (WT-hMC4R) containing an N-terminal 3xHA epitope tag and an intracellular C-terminal venus-yellow fluorescent protein (v-YFP) were maintained at 37° C. in humidified air containing 5% CO2 in Dulbecoo's modified Eagle's medium (DMEM) supplemented with 10% fetal bovine serum (FBS), 100 U/ml penicillin/streptomycin (DMEM complete/10% FBS). Cells were generally at 70%-80% confluence on the day of assay.

T1 sequence (P32245 whole entry): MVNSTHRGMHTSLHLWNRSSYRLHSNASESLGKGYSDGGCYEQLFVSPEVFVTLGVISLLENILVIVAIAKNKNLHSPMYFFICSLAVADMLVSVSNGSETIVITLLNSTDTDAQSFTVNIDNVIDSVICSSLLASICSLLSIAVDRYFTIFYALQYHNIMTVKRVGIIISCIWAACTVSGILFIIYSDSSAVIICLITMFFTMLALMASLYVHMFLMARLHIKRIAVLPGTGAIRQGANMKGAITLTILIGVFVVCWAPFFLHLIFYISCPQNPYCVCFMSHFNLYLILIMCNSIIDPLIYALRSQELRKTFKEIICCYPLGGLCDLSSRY

IC50 [µM]	Structure (SMILES)
0.5 to 1	COc1ccc(-c2nn3ccc(C(=O)N(CCC4CC4)CCC4CC4)cc3c2CCCN2CCCCC2)cc1 [Example 130]
1 to 5	COc1ccc(-c2nn3ccc(C(=O)N(CCC(C)C)CCC(C)C)cc3c2CCCNCc2ccccc2)cc1 [Example 155]
0.5 to 1	COc1ccc(Nc2nn3ccc(C(=O)N(CCC(C)C)CCC(C)C)cc3c2C(=O)NCCN2CCCCC2)cc1 [Example 152]
0.5 to 1	COc1ccc(-c2nn3ccc(C(=O)N(CCC(C)C)CCC(C)C)cc3c2/C=C/CN2CCCCC2C)cc1 (stereo not drawn) [Example 169]
1 to 5	CC(C)CCN(CCC(C)C)C(=S)c1ccn2nc(-c3ccccc3)c(CCCN3CCCCC3)c2c1 [Example 143]
1 to 5	CC(C)CCN(CCC(C)C)C(=O)c1ccn2nc(-c3ccc(-c4noc(-c5ccccc5)n4)cc3)c(CCCN3CCCCC3)c2c1 [Example 134]
5 to 15	CC(C)CCN(CCC(C)C)C(=O)c1ccn2nc(-c3ccc(-c4noc(Cc5ccc(F)cc5)n4)cc3)c(CCCN3CCCCC3)c2c1 [Example 140]
5 to 15	CC(C)CCN(CCC(C)C)C(=O)c1ccn2nc(C(=O)N3CCOCC3)c(/C=C/CN3CCCCC3)c2c1 [Example 167]

Further lines, the molecule ahead of its results:

Structure (SMILES)	IC50 [µM]
CCCCN(CCCC)C(=O)c1ccn2nc(-c3ccccc3)c(CCCN3CCCCC3)c2c1 [Example 54]	0.5 to 1
CCCCN(CCCC)C(=O)c1ccn2nc(-c3ccc(F)cc3)c(/C=C/CN3CCCCC3)c2c1 [Example 51]	1 to 5
COC(=O)c1ccccc1-c1nn2ccc(C(=O)N(CCC(C)C)CCC(C)C)cc2c1CCCN1CCCCC1 [Example 39]	1 to 5
CC(C)CCN(CCC(C)C)C(=O)c1ccn2nc(-c3ccc(C(=N)N)cc3)c(CCCN3CCCCC3)c2c1 [Example 120]	< 0.5
CC(=O)c1ccccc1-c1nn2ccc(C(=O)N(CCC(C)C)CCC(C)C)cc2c1CCCN1CCCCC1 [Example 40]	1 to 5
CCN(CC)C/C=C/c1c(-c2ccc(OC)cc2)nn2ccc(C(=O)N(CCC(C)C)CCC(C)C)nc12 [Example 100]	5 to 15
CC(C)CCN(CCC(C)C)C(=O)c1ccn2nc(-c3ccc(-c4noc(=O)[nH]4)cc3)c(CCCN3CCCCC3)c2c1 [Example 103]	0.5 to 1
CC(C)CCN(CCC(C)C)C(=O)c1ccn2nc(C(C)(C)C)c(CCCN3CCCCC3)c2c1 [Example 119]	< 0.5
CCCCCN(CCCCC)C(=O)c1ccn2nc(-c3ccccc3)c(/C=C/CN3CCCCC3)c2c1 [Example 59]	1 to 5
COc1ccc(Cl)cc1-c1nn2ccc(C(=O)N(CCC(C)C)CCC(C)C)cc2c1C#CCCN1CCCCC1 [Example 97]	1 to 5
CC(C)CCN(CCC(C)C)C(=O)c1ccn2nc(-c3ccc(C(N)=O)cc3)c(/C=C/CN3CCCCC3)c2c1 [Example 91]	0.5 to 1
CC(C)CCN(CCC(C)C)C(=O)c1ccn2nc(-c3ccc(C(C)(C)C)cc3)c(CCCN3CCCCC3)c2c1 [Example 4]	1 to 5
CCOc1ccc(-c2nn3ccc(C(=O)N(CCC(C)C)CCC(C)C)cc3c2/C=C/CN2CCC(C(F)(F)F)CC2)cc1 [Example 81]	5 to 15
COc1cc(OC)cc(-c2nn3ccc(C(=O)N(CCC(C)C)CCC(C)C)cc3c2/C=C/CN2CCCCC2)c1 [Example 84]	< 0.5
CCCCCN(CCCCC)C(=O)c1ccn2nc(-c3ccc(C)cc3)c(CCCN3CCCCC3)c2c1 [Example 62]	1 to 5
CCCN(CC1CC1)C(=O)c1ccn2nc(-c3ccc(OC)cc3)c(/C=C/CN3CCCCC3)c2c1 [Example 26]	5 to 15
CC(=O)c1ccc(-c2nn3ccc(C(=O)N(CCC(C)C)CCC(C)C)cc3c2/C=C/CN2CCOCC2)cc1 [Example 115]	1 to 5
CC(C)CCN(CCC(C)C)C(=O)c1ccn2nc(-c3ccc(C(=O)O)cc3)c(CCCN3CCCCC3)c2c1 [Example 75]	1 to 5
COc1ccc(Cl)cc1-c1nn2ccc(C(=O)N(CCC(C)C)CCC(C)C)cc2c1/C=C/CN1CCCCC1 [Example 113]	1 to 5
